Data reported in the supplement of paper PMC10307832.

Experiments:
Test in all cases: relative viability (nuclei count vs DMSO), 5 days (fraction); higher = more cells survive
[1] = compound: C1=CC=C(C(=C1)C2=CC=C(C=C2)C3=CSC4=C3C(=C(C(=O)N4)C#N)O)O + Cc1cc(Nc2cc(N3CCN(C)CC3)nc(Sc3ccc(NC(=O)C4CC4)cc3)n2)n[nH]1 [Tozasertib] (partner 0.1 µM)
Method in brief: (§1)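 A single step with final 0.05% Triton X-100, 1% formaldehyde and 1 ug/ml Hoechst fixed the cells and stained nuclei 5 days after treatment. Lung cancer cell lines in 1536-well plates had been treated by pin tool the day after seeding with one drug alone or a fixed anchor-drug dose plus five library-drug doses (not always all listed) in √10 steps, and nuclei were counted on 4× images. Relative viability is the ratio of nuclei in treated wells to nuclei in vehicle wells, taken as the median of duplicate plates.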

TGX 221 + OSI-027 = compound: CC1=CN2C(=O)C=C(N=C2C(=C1)C(C)NC3=CC=CC=C3)N4CCOCC4 [TGX 221] + COc1cccc2cc(-c3nc([C@H]4CC[C@H](C(=O)O)CC4)n4ncnc(N)c34)[nH]c12 [OSI-027] (partner 0.5 µM)
Method in brief: as §1

[2] = compound: O=C(CCCCCCNC(=O)c1cnc(N(c2ccccc2)c2ccccc2)nc1)NO [Ricolinostat] + Nc1ncn([C@H]2C[C@H](O)[C@@H](CO)O2)c(=O)n1 [Decitabine] (partner 2 µM)
Method in brief: as §1

[3] = compound: O=C(CCCCCCNC(=O)c1cnc(N(c2ccccc2)c2ccccc2)nc1)NO [Ricolinostat] + C[C@]1(O)C[C@@H](c2nc(-c3ccc4ccc(-c5ccccc5)nc4c3)c3c(N)nccn32)C1 [Linsitinib] (partner 1 µM)
Method in brief: as §1

Cell Line	relative viability ([1]; first compound 0.08 µM)	relative viability ([1]; first compound 0.253 µM)	relative viability ([1]; first compound 0.8 µM)	relative viability ([1]; first compound 2.53 µM)	relative viability ([1]; first compound 8 µM)	relative viability (TGX 221 + OSI-027; first compound 0.08 µM)	relative viability (TGX 221 + OSI-027; first compound 0.253 µM)	relative viability (TGX 221 + OSI-027; first compound 0.8 µM)	relative viability (TGX 221 + OSI-027; first compound 2.53 µM)	relative viability (TGX 221 + OSI-027; first compound 8 µM)	relative viability ([2]; first compound 0.08 µM)	relative viability ([2]; first compound 0.253 µM)	relative viability ([2]; first compound 0.8 µM)	relative viability ([2]; first compound 2.53 µM)	relative viability ([3]; first compound 0.08 µM)	relative viability ([3]; first compound 0.253 µM)	relative viability ([3]; first compound 0.8 µM)	relative viability ([3]; first compound 2.53 µM)
NCI-H2342	0.498	0.493	0.543	0.399	0.48	0.544	0.655	0.613	0.631	0.602	0.628	0.719	0.784	0.718	–	–	–	–
SK-LU-1	0.319	0.265	0.293	0.379	0.306	0.31	0.331	0.288	0.273	0.298	0.607	0.604	0.638	0.524	1.09	0.96	1.18	0.76
NCI-H2023	0.257	0.38	0.38	0.476	0.439	0.324	0.328	0.441	0.322	0.275	0.234	0.233	0.227	0.204	0.612	0.614	0.627	0.625
NCI-H1299	–	–	–	–	–	–	–	–	–	–	–	–	–	–	0.984	0.898	0.959	0.74
LOU-NH91	0.669	0.715	0.612	0.637	0.645	0.711	0.72	0.727	0.745	0.701	–	0.794	0.826	0.887	–	0.927	0.973	0.88
LCLC-103H	0.481	0.478	0.592	0.503	0.457	0.425	0.453	0.438	0.394	0.411	0.726	0.745	0.76	0.739	0.925	1.06	1.09	1.11
SW 1573	0.175	0.205	0.203	0.152	0.199	0.511	0.569	0.525	0.513	0.494	0.487	0.496	0.546	0.416	0.673	0.781	0.781	0.853
NCI-H1755	0.735	0.571	0.544	0.629	0.728	0.685	0.728	0.605	0.657	0.697	0.66	0.649	0.696	0.665	0.901	–	0.994	0.966
COR-L 105	0.386	0.341	0.358	0.383	0.379	0.793	0.612	0.759	1.03	0.627	0.675	0.65	0.7	0.669	0.761	0.92	1.1	1.11
NCI-H1793	0.374	0.331	0.354	0.337	0.34	0.249	0.237	0.248	0.183	0.218	0.423	0.514	0.56	0.499	–	0.802	0.743	0.81
EMC-BAC-2	0.297	0.303	0.254	0.327	0.305	0.376	0.443	0.348	0.359	0.366	0.796	0.938	0.901	0.722	0.731	0.78	0.832	0.885
H3255	1.04	0.727	0.213	0.868	0.559	0.535	0.593	0.506	0.539	0.571	0.522	0.598	0.538	0.426	0.78	0.879	0.878	0.854
PC-14	0.63	0.753	0.542	0.556	0.436	0.707	0.791	0.908	1.05	0.654	0.22	0.19	0.193	0.22	0.928	0.897	0.907	0.763
NCI-H661	0.359	0.386	0.357	0.356	0.369	0.748	0.695	0.689	0.673	0.706	0.552	0.511	0.581	0.489	–	0.53	0.792	0.779
HARA	0.117	0.106	0.49	0.104	0.101	0.447	0.493	0.526	0.501	0.471	0.335	0.408	0.464	0.405	0.813	0.902	0.886	0.81
COR-L23	0.195	0.213	0.199	0.174	0.153	0.713	0.777	0.815	0.835	0.715	0.402	0.493	0.358	0.332	0.726	0.854	0.897	0.543
SK-MES-1	0.842	1.07	0.942	1.01	0.923	0.552	0.53	0.592	0.532	0.473	0.402	0.384	0.344	0.375	1.01	1.01	1.12	1.02
NCI-H1395	0.666	0.843	0.804	0.716	0.772	0.542	0.525	0.61	0.475	0.544	–	0.731	0.652	0.663	–	1.2	1.05	1.04
NCI-H2170	0.71	0.709	0.875	0.721	0.634	0.717	0.737	0.681	0.66	0.712	0.471	0.454	0.452	0.482	–	–	–	–
